Experimental data: US9156845B2, “4-(substituted amino)-7H-pyrrolo[2,3-d] pyrimidines as LRRK2 inhibitors” (Pfizer Inc., priority 2012, dated 2015)

Tests used:
CDK2 = CDK2 (Homo sapiens (Human), UniProt P24941); test: ActivX kinase probe assay (human PBMC); format: binding; conditions: CDK2, read-out: percent inhibition
Wnk1, Wnk2, Wnk3 = test: ActivX kinase probe assay (human PBMC); format: binding
CaMK2g = CaMK2g (Homo sapiens (Human), UniProt Q13555); test: ActivX kinase probe assay (human PBMC); format: binding; conditions: CaMK2g, read-out: percent inhibition
NEK1 = NEK1 (Homo sapiens (Human), UniProt Q96PY6); test: ActivX kinase probe assay (human PBMC); format: binding; conditions: NEK1, read-out: percent inhibition
CHK2 = CHK2 (Homo sapiens (Human), UniProt O96017); test: ActivX kinase probe assay (human PBMC); format: binding; conditions: CHK2, read-out: percent inhibition
PIK3C3 = PIK3C3 (Homo sapiens (Human), UniProt Q8NEB9); test: ActivX kinase probe assay (human PBMC); format: binding; conditions: PIK3C3, read-out: percent inhibition
ACK = ACK (Homo sapiens (Human), UniProt Q07912); test: ActivX kinase probe assay (human PBMC); format: binding; conditions: ACK, read-out: percent inhibition
MSK1 domain1 = MSK1 domain1 (Homo sapiens (Human), UniProt O75582); test: ActivX kinase probe assay (human PBMC); format: binding; conditions: MSK1 domain1, read-out: percent inhibition
GCN2 = GCN2 (Homo sapiens (Human), UniProt Q9P2K8); test: ActivX kinase probe assay (human PBMC); format: binding; conditions: GCN2, read-out: percent inhibition
CDK11, CDK8 = test: ActivX kinase probe assay (human PBMC); format: binding
MAP3K5 = MAP3K5 (Homo sapiens (Human), UniProt Q99683); test: ActivX kinase probe assay (human PBMC); format: binding; conditions: MAP3K5, read-out: percent inhibition
NEK6, NEK7 = test: ActivX kinase probe assay (human PBMC); format: binding
MARK2 = MARK2 (Homo sapiens (Human), UniProt Q7KZI7); test: ActivX kinase probe assay (human PBMC); format: binding; conditions: MARK2, read-out: percent inhibition
IRE1 = IRE1 (Homo sapiens (Human), UniProt O75460); test: ActivX kinase probe assay (human PBMC); format: binding; conditions: IRE1, read-out: percent inhibition
FAK = FAK (Homo sapiens (Human), UniProt Q05397); test: ActivX kinase probe assay (human PBMC); format: binding; conditions: FAK, read-out: percent inhibition
TBK1 = TBK1 (Homo sapiens (Human), UniProt Q9UHD2); test: ActivX kinase probe assay (human PBMC); format: binding; conditions: TBK1, read-out: percent inhibition
CaMK1a = CaMK1a (Homo sapiens (Human), UniProt Q14012); test: ActivX kinase probe assay (human PBMC); format: binding; conditions: CaMK1a, read-out: percent inhibition
MAP3K4 = MAP3K4 (Homo sapiens (Human), UniProt Q9Y6R4); test: ActivX kinase probe assay (human PBMC); format: binding; conditions: MAP3K4, read-out: percent inhibition
AKT2, AKT3 = test: ActivX kinase probe assay (human PBMC); format: binding
BTK = BTK (Homo sapiens (Human), UniProt Q06187); test: ActivX kinase probe assay (human PBMC); format: binding; conditions: BTK, read-out: percent inhibition
FYN, SRC, YES = test: ActivX kinase probe assay (human PBMC); format: binding
GPRK6 = GPRK6 (Homo sapiens (Human), UniProt P43250); test: ActivX kinase probe assay (human PBMC); format: binding; conditions: GPRK6, read-out: percent inhibition
MAP2K1 = MAP2K1 (Homo sapiens (Human), UniProt Q02750); test: ActivX kinase probe assay (human PBMC); format: binding; conditions: MAP2K1, read-out: percent inhibition
[1] = target: GST-tagged truncated LRRK2 (Homo sapiens (Human), UniProt Q5S007); test: LRRK2 Lantha Screen kinase assay; format: biochemical; conditions: geometric mean of 2-5 determinations unless otherwise indicated (a: >=6 determinations; b: single determination); read-out: LRRK2 WT IC50
Method: LRRK2 kinase activity was measured using Lantha Screen technology from Invitrogen. GST-tagged truncated LRRK2 from Invitrogen (Cat # PV4874) was incubated with a fluorescein-labeled peptide substrate based upon ezrin/radixin/moesin (ERM), also known as LRRKtide (Invitrogen cat #PR8976A), in the presence of a dose response of compound. Upon completion, the assay was stopped and detected with a terbium labeled anti-phospho-ERM antibody (Invitrogen, cat #PR8975A). […] Aliquots (3.5 μL) of the 100% DMSO dose response were mixed with 46.5 μL water then 1 μL of this mixture was added to the 3 μL substrate mix in the 384-well plate. The kinase reaction was started with 3 μL of a working solution of LRRK2 enzyme at a concentration of 4 μg/mL. […] The reaction was allowed to progress at room temperature for two hours and then stopped with the addition of 7 μL of detection buffer (20 mM Tris pH 7.6, 0.01% NP-40, 0.02% NaN3, 6 mM EDTA with 2 nM terbium labeled anti-phospho-ERM).

ABL, ARG = test: ActivX kinase probe assay (human PBMC); format: binding
LOK = LOK (Homo sapiens (Human), UniProt O94804); test: ActivX kinase probe assay (human PBMC); format: binding; conditions: LOK, read-out: percent inhibition
JAK3 domain2 = JAK3 domain2 (Homo sapiens (Human), UniProt P52333); test: ActivX kinase probe assay (human PBMC); format: binding; conditions: JAK3 domain2, read-out: percent inhibition
DGKA = DGKA (Homo sapiens (Human), UniProt P23743); test: ActivX kinase probe assay (human PBMC); format: binding; conditions: DGKA, read-out: percent inhibition
MARK3 = MARK3 (Homo sapiens (Human), UniProt P27448); test: ActivX kinase probe assay (human PBMC); format: binding; conditions: MARK3, read-out: percent inhibition
RSK1, RSK2, RSK3 domain1 = test: ActivX kinase probe assay (human PBMC); format: binding
FES = FES (Homo sapiens (Human), UniProt P07332); test: ActivX kinase probe assay (human PBMC); format: binding; conditions: FES, read-out: percent inhibition
PIK3CD = PIK3CD (Homo sapiens (Human), UniProt O00329); test: ActivX kinase probe assay (human PBMC); format: binding; conditions: PIK3CD, read-out: percent inhibition
ULK3 = ULK3 (Homo sapiens (Human), UniProt Q6PHR2); test: ActivX kinase probe assay (human PBMC); format: binding; conditions: ULK3, read-out: percent inhibition
LKB1 = LKB1 (Homo sapiens (Human), UniProt Q15831); test: ActivX kinase probe assay (human PBMC); format: binding; conditions: LKB1, read-out: percent inhibition
NEK7 = NEK7 (Homo sapiens (Human), UniProt Q8TDX7); test: ActivX kinase probe assay (human PBMC); format: binding; conditions: NEK7, read-out: percent inhibition
Sequence of NEK7 (Q8TDX7 whole entry): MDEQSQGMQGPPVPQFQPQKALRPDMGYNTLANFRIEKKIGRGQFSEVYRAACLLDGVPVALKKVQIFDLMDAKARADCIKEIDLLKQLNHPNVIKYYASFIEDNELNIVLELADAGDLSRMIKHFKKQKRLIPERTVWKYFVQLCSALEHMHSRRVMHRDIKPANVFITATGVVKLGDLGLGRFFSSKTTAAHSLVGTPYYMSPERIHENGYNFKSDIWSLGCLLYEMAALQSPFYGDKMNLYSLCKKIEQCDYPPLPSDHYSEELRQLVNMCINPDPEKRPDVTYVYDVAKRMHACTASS

Sequence of MARK2 (Q7KZI7 whole entry): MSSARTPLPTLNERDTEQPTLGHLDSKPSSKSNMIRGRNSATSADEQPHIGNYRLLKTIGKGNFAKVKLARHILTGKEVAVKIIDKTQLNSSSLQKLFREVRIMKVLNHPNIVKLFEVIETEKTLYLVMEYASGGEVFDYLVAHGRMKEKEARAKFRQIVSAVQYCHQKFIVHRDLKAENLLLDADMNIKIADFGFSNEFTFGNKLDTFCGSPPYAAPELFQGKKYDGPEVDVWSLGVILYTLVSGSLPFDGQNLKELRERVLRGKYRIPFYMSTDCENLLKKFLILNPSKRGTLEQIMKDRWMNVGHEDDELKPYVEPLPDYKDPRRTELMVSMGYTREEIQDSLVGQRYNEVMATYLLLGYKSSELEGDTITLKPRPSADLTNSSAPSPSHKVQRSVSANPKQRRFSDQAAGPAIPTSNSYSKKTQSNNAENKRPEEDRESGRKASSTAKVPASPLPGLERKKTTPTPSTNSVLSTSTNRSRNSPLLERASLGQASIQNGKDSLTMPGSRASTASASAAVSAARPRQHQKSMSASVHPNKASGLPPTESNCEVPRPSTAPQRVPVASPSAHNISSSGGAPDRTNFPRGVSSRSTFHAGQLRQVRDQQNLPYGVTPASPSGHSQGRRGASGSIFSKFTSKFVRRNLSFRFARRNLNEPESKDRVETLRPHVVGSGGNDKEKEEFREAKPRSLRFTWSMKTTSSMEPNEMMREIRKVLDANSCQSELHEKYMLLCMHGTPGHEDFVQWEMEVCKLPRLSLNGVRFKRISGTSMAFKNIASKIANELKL
Sequence of MARK3 (P27448 whole entry, the tested form may be a part): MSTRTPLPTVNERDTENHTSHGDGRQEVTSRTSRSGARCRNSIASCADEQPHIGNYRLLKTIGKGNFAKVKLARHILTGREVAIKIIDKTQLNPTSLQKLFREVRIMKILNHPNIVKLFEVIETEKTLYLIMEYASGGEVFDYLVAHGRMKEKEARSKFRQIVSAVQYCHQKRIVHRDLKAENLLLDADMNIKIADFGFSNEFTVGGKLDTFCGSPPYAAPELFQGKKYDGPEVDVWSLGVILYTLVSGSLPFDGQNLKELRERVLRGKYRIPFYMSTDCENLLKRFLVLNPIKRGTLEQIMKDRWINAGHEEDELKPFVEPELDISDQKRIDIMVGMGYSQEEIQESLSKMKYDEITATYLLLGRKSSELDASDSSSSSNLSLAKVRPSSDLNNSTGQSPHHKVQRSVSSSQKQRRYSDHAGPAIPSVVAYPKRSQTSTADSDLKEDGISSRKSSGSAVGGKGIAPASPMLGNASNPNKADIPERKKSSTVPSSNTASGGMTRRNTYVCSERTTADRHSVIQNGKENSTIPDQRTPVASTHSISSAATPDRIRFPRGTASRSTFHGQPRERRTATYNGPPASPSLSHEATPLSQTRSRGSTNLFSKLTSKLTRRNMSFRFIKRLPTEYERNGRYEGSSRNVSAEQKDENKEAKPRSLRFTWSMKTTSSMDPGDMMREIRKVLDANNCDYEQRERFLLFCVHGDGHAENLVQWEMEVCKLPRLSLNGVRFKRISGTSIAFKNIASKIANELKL
Sequence of IRE1 (O75460 19-977): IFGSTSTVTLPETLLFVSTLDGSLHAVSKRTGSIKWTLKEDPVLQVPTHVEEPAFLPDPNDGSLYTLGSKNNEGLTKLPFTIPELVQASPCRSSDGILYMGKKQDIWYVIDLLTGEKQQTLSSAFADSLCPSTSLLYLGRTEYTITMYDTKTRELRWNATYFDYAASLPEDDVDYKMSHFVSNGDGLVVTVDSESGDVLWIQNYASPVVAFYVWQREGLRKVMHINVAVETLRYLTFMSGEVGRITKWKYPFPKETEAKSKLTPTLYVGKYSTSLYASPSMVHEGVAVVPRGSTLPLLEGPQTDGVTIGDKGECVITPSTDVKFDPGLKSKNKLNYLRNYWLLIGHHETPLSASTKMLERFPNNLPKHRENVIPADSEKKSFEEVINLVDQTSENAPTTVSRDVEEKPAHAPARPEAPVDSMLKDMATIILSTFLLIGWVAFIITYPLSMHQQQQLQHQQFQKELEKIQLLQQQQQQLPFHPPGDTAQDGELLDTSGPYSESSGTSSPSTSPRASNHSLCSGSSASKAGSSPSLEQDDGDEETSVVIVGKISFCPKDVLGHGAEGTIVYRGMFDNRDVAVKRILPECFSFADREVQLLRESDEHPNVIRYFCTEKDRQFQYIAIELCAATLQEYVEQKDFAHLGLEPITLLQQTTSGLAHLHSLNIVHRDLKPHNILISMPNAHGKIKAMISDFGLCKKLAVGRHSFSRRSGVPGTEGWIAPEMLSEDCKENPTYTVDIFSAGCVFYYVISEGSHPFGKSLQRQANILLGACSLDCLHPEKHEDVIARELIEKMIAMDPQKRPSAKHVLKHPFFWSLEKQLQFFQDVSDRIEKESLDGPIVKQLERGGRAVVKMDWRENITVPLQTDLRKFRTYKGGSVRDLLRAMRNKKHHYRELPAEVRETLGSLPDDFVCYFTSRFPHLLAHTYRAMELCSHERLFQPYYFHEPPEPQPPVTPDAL
Sequence of TBK1 (Q9UHD2 whole entry): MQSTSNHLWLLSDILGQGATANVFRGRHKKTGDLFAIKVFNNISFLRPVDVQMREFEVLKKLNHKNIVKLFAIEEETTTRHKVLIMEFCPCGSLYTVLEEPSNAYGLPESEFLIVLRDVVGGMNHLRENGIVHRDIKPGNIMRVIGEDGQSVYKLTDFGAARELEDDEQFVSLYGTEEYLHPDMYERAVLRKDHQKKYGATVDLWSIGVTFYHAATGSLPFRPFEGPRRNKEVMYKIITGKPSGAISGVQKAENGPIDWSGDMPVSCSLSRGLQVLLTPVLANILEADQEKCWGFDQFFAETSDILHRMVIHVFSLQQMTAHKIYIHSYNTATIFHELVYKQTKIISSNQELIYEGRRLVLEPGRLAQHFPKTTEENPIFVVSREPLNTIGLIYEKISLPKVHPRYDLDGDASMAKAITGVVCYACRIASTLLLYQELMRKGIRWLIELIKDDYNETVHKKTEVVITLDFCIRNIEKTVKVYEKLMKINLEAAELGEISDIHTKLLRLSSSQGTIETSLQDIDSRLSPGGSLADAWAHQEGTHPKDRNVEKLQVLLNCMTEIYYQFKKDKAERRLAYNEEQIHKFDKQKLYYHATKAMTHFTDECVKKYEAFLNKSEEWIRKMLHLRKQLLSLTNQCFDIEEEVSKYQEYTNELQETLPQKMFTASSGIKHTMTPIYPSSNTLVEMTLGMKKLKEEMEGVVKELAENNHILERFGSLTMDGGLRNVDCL
Sequence of DGKA (P23743 whole entry): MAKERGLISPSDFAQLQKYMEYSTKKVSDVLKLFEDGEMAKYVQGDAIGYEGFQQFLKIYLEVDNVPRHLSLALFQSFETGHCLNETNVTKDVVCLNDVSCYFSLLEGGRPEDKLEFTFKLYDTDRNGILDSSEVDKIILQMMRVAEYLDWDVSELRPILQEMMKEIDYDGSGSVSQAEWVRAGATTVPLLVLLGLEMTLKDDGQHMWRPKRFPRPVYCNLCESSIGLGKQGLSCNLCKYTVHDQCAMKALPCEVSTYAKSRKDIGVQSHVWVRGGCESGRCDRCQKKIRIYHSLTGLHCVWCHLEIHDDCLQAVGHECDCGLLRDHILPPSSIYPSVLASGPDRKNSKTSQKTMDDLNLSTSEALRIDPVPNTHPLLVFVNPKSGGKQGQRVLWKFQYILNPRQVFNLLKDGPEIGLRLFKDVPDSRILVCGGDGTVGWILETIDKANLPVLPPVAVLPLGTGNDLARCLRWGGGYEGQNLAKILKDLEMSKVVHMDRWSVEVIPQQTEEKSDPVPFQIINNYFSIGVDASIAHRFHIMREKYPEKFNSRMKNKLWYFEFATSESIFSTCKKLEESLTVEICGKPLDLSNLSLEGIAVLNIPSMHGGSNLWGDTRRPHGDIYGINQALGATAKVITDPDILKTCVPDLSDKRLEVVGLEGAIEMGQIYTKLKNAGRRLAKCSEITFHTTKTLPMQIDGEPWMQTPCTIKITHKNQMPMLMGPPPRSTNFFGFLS
Sequence of ULK3 (Q6PHR2 whole entry): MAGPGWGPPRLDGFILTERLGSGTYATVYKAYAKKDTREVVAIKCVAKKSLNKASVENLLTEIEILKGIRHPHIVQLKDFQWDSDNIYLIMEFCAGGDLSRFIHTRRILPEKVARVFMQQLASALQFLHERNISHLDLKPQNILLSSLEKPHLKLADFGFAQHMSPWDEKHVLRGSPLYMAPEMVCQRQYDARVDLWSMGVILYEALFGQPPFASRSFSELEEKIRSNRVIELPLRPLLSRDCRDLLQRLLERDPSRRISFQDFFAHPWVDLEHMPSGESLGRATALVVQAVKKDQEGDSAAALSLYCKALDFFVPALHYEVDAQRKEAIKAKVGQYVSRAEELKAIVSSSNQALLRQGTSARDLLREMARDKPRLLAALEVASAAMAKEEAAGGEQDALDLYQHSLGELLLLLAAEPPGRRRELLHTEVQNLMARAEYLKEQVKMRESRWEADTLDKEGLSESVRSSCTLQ

Structure (SMILES): Cn1cc(-c2c[nH]c3ncnc(N4CCOCC4)c23)cn1 [Example 1, 5-(1-Methyl-1H-pyrazol-4-yl)-4-(morpholin-4-yl)-7H-pyrrolo[2,3-d]pyrimidine]
- inhibition at 0.1 µM (CDK2; 0.1 μM): -12.1%
- inhibition at 1 µM (CDK2; 1 μM): 9.5%
- percent inhibition (Wnk1, Wnk2, Wnk3; 0.1 μM): −18.8%
- percent inhibition (Wnk1, Wnk2, Wnk3; 1 μM): −24%
- inhibition at 0.1 µM (CaMK2g; 0.1 μM): -16.9%
- inhibition at 1 µM (CaMK2g; 1 μM): -15.5%
- inhibition at 0.1 µM (NEK1; 0.1 μM): 7%
- inhibition at 1 µM (NEK1; 1 μM): -10.1%
- inhibition at 0.1 µM (CHK2; 0.1 μM): 0.9%
- inhibition at 1 µM (CHK2; 1 μM): 17.7%
- inhibition at 0.1 µM (PIK3C3; 0.1 μM): 23.3%
- inhibition at 1 µM (PIK3C3; 1 μM): 4.8%
- inhibition at 0.1 µM (ACK; 0.1 μM): 5.2%
- inhibition at 1 µM (ACK; 1 μM): -8%
- inhibition at 0.1 µM (MSK1 domain1; 0.1 μM): -7%
- inhibition at 1 µM (MSK1 domain1; 1 μM): -30.4%
- inhibition at 0.1 µM (GCN2; 0.1 μM): 0.1%
- inhibition at 1 µM (GCN2; 1 μM): -25.1%
- percent inhibition (CDK11, CDK8; 0.1 μM): 4.4%
- percent inhibition (CDK11, CDK8; 1 μM): 2.4%
- inhibition at 0.1 µM (MAP3K5; 0.1 μM): 6.2%
- inhibition at 1 µM (MAP3K5; 1 μM): 2.1%
- percent inhibition (NEK6, NEK7; 0.1 μM): −1.7%
- percent inhibition (NEK6, NEK7; 1 μM): −17%
- inhibition at 0.1 µM (MARK2; 0.1 μM): 10.1%
- inhibition at 1 µM (MARK2; 1 μM): 41.6%
- inhibition at 0.1 µM (IRE1; 0.1 μM): -1.3%
- inhibition at 1 µM (IRE1; 1 μM): -8%
- inhibition at 0.1 µM (FAK; 0.1 μM): 18%
- inhibition at 1 µM (FAK; 1 μM): 20%
- inhibition at 0.1 µM (TBK1; 0.1 μM): 0.1%
- inhibition at 1 µM (TBK1; 1 μM): 13.4%
- inhibition at 0.1 µM (CaMK1a; 0.1 μM): 2%
- inhibition at 1 µM (CaMK1a; 1 μM): 6.3%
- inhibition at 0.1 µM (MAP3K4; 0.1 μM): -14%
- inhibition at 1 µM (MAP3K4; 1 μM): 6.9%
- percent inhibition (AKT2, AKT3; 0.1 μM): 1.6%
- percent inhibition (AKT2, AKT3; 1 μM): 10.7%
- inhibition at 0.1 µM (BTK; 0.1 μM): 8.7%
- inhibition at 1 µM (BTK; 1 μM): 3.7%
- percent inhibition (FYN, SRC, YES; 0.1 μM): −24.1%
- percent inhibition (FYN, SRC, YES; 1 μM): −56.3%
- inhibition at 0.1 µM (GPRK6; 0.1 μM): 8.9%
- inhibition at 1 µM (GPRK6; 1 μM): 23.7%
- inhibition at 0.1 µM (MAP2K1; 0.1 μM): 3.5%
- inhibition at 1 µM (MAP2K1; 1 μM): 17%
- IC50 [1]: 13 nM
- percent inhibition (ABL, ARG; 0.1 μM): 25.8%
- percent inhibition (ABL, ARG; 1 μM): 22.5%
- inhibition at 0.1 µM (LOK; 0.1 μM): 5.7%
- inhibition at 1 µM (LOK; 1 μM): 22.6%
- inhibition at 0.1 µM (JAK3 domain2; 0.1 μM): 2.7%
- inhibition at 1 µM (JAK3 domain2; 1 μM): -5.2%
- inhibition at 0.1 µM (DGKA; 0.1 μM): -21%
- inhibition at 1 µM (DGKA; 1 μM): -16.6%
- inhibition at 0.1 µM (MARK3; 0.1 μM): 1%
- inhibition at 1 µM (MARK3; 1 μM): 29.1%
- percent inhibition (RSK1, RSK2, RSK3 domain1; 0.1 μM): 3%
- percent inhibition (RSK1, RSK2, RSK3 domain1; 1 μM): 18.7%
- inhibition at 0.1 µM (FES; 0.1 μM): 4.3%
- inhibition at 1 µM (FES; 1 μM): -0.9%
- inhibition at 0.1 µM (PIK3CD; 0.1 μM): -102%
- inhibition at 1 µM (PIK3CD; 1 μM): -65.4%
- inhibition at 0.1 µM (ULK3; 0.1 μM): -1.9%
- inhibition at 1 µM (ULK3; 1 μM): 8%
- inhibition at 0.1 µM (LKB1; 0.1 μM): -1.1%
- inhibition at 1 µM (LKB1; 1 μM): -14%
- inhibition at 0.1 µM (NEK7; 0.1 μM): -0.6%
- inhibition at 1 µM (NEK7; 1 μM): -18.8%
